Reference: patent US7105531B2, “Tricyclic protein kinase inhibitors” (WYETH, priority 1999, dated 2006)

Tests used:
[1] = target: T1, Rat2 fibroblasts transformed with v-Src/Hu c-Src fusion gene (Homo sapiens, UniProt P12931, cells depend on it, form not given); test: Anchorage independent Src-transformed fibroblast proliferation test procedure; type: cell-based, rat; conditions: for Src TF prolif % Inh: @ dose 10 μM
T1 construct: fused on or other part: The v-Src frame of Rous sarcoma virus: everything outside the catalytic domain, namely the N-terminal unique/SH3/SH2 part; Candidates are Prague C (P00526), then Schmidt-Ruppin A (P00524)
Excerpt: Anchorage Independent Src-transformed Fibroblast Proliferation Test Procedure: Rat2 fibroblasts stably transformed with a plasmid containing CMV promotor controlled v-Src/Hu c-Src fusion gene in which the catalytic domain of human c-Src is inserted in place of the v-Src catalytic domain in the v-Src gene are used for the measurement of src dependent suspension growth.

[2] = target: T2, recombinant human MEK 1 (MAPKK) and recombinant human ERK2 (MAPK) (Homo sapiens, UniProt P28482+Q02750); test: Mitogen Activated Protein Kinase (MAPK) coupled Mek-Erk test procedure; type: biochemical
T2 construct: GST
Procedure: To evaluate inhibitors of the MAP (mitogen activated protein) kinase a two component coupled standard pharmacological test procedure, which measures phosphorylation of a serine/threonine residue in an appropriate sequence in the substrate in the presence and absence of a putative inhibitor, is used. Recombinant human MEK 1 (MAPKK) is first used to activate recombinant human ERK2 (MAPK) and the activated MAPK (ERK) is incubated with substrate (myelin basic protein peptide (MBPP) or Myc peptide) in the presence of ATP, Mg^+2 and radiolabeled ^33P ATP. The phosphorylated peptide is captured on a P 81 phosphocellulose filter (paper filter or embedded in microtiter plate) washed and counted by scintillation methods.
The peptide substrates used in the assay are MBPP, peptide substrate ([…]), or synthetic Myc substrate, ([…].5 TFA). The recombinant enzymes used are prepared as GST fusion proteins of human ERK 2 and human MEK 1. Inhibitor samples are prepared as 10× stocks in 10% DMSO and an appropriate aliquot is used to deliver either 10 ug/ml for a single point screening dose or 100 to 0.0001 uM final concentration for a dose response curve. Final DMSO concentrations are less than or equal to 1%.
The reaction is run as follows in 50 mM Tris kinase buffer, pH 7.4 in a reaction volume of 50 ul. The appropriate volume of kinase buffer and inhibitor sample is added to the tube. Appropriate dilution of enzyme is delivered to give 2–5 ug recombinant MAPK (Erk) per tube. The inhibitor is incubated with MAPK (Erk) for 30 min at 0 deg. C. Recombinant Mek (MAPKK) (0.5–2.5 ug) or fully activated Mek (0.05–0.1 units) is added to activate the Erk and incubated for 30 min at 30° C. Then substrate and γ^33P ATP are added to give a final concentration of 0.5–1 mM MBPP or 250–500 uM Myc; 0.2–0.5 uCi gamma P 33 ATP/tube; 50 μM ATP final concentration. Samples are incubated at 30° C. for 30 minutes and the reaction is stopped by adding 25 μl of ice cold 10% trichloroacetic acid (TCA). After samples are chilled on ice for 30 min. 20 μl of sample is transferred onto P 81 phosphocellulose filter. Filter papers are washed 2 times with a large volume of 1% acetic acid, then 2 times with water. The filters are briefly air dried before addition of scintillant and samples are counted in the appropriate scintillation counter set up for reading ^33P isotope. Samples include a positive control (activated enzyme plus substrate); a no enzyme control; a no substrate control; samples with different concentrations of putative inhibitor, and samples with reference inhibitors (other active compounds or non-specific inhibitors such as staurosporine or K252 B).
The raw data is captured as cpm. Sample replicates are averaged and corrected for background count. Mean cpm data is tabulated by group and % inhibition by a test compound is calculated as (corrected cpm control−corrected. cpm sample/control)×100=% inhibition).

p60^c-src (Src) = target: T3, p60^c-src (Src) (Homo sapiens, UniProt P12931); test: Src kinase test procedure (Elisa format); type: biochemical
T3 construct: purchased Upstate Biotechnologies
Procedure: Inhibitors of p60^c-src (partially purified preparation purchased from Upstate Biotechnologies) tyrosine kinase activity are analyzed in an Elisa format. […] HRP-conjugated anti-phosphotyrosine is used to detect phosphorylated peptide via a color reaction. Conditions recommended by the manufacturer are employed.
The reaction mixture with the phosphorylated peptide is then transferred to a streptavidin-coated microtiter plate (provided in the kit) and allowed to bind for 20 minutes. Unbound peptide and reaction mixture is decanted and the plate is washed with PBS six times. Horseradish peroxidase-conjugated phosphotyrosine antibody supplied in the kit is incubated with the plate for one hour, then decanted. The plate is again washed with PBS six times.

HT-29 cells = test: Cell proliferation test procedure, HT-29 cells; type: cell-based; conditions: Homo sapiens, read-out: HT-29 prolif IC50
Procedure: HT-29 cells: Compound effectiveness at inhibiting cell proliferation on plastic is performed in a 96-well format by plating 5000 cells per well in appropriate medium on day one, followed by compound addition on day 2 in serial two-fold dilutions. On day five, compound is washed away and medium containing MTS reagent (Promega) is added. Relative cell number is determined by reading the absorbance at 490 nm of a dye produced by an NAD-dependent cellular enzymatic reaction.

T1 sequence (P12931 whole entry, change not shown, the tested form may be a part): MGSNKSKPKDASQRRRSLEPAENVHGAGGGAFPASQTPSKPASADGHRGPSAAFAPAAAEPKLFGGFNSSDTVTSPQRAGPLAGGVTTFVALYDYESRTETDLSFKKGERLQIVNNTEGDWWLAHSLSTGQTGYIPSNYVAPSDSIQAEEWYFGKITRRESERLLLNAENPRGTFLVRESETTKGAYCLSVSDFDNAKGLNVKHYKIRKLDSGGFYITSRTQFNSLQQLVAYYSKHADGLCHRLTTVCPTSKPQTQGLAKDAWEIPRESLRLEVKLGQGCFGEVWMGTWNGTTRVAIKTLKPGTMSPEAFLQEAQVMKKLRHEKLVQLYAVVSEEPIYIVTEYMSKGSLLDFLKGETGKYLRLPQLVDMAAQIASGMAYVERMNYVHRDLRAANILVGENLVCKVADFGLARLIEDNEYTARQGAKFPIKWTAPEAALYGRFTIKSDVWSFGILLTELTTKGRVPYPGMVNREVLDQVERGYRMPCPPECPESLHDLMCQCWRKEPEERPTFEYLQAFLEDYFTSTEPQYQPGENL
T3 sequence (P12931 whole entry, species assumed): as the sequence (P12931 whole entry, change not shown, the tested form may be a part) above

Structure (SMILES) | Src TF prolif % Inh [1] [%] | Mek-Erk IC50 [2] [µM] | melting point | also measured
N#Cc1cnc2c(c1Nc1ccc(Cl)cc1Br)C=C1N=CN=C1C2 [Example 38, 8-(2-Bromo-4-chlorophenylamino)imidazo[4,5-g]quinoline-7-carbonitrile] | 0 | 1.3 | 244 to 246 °C | 
COc1cc(Nc2c(C#N)cnc3c2C=C2N=CN=C2C3)c(Br)cc1Cl [Example 39, 8-(2-Bromo-4-chloro-5-methoxyphenylamino)imidazo[4,5-g]quinoline-7-carbonitrile] | 25 | 1.3 | 257 °C (dec.) | 
COc1ccc(Cl)c(Nc2c(C#N)cnc3c2C=C2N=CN=C2C3)c1 [Example 40, 8-(2-Chloro-5-methoxy-phenylamino)imidazo[4,5-g]quinoline-7-carbonitrile] | 0 | 0.5 | 296 to 298 °C | 
COc1cc(Nc2c(C#N)cnc3c2sc2ccc([N+](=O)[O-])cc23)c(C)cc1Cl [Example 75] |  |  |  | Src % Inh (p60^c-src (Src); dose 10 μM): 0%
COc1cc(Nc2c(C#N)cnc3cc4cc(OCCN5CCN(C)CC5)c(OC)cc4cc23)c(C)cc1Cl [Example 133, 4-(4-chloro-5-methoxy-2-methylanilino)-7-methoxy-8-[2-(4-methyl 1-piperazinyl)ethoxy]benzo[g]quinoline-3-carbonitrile] |  |  |  | IC50 (HT-29 cells): 8.6 µM
COc1cc(Nc2c(C#N)cnc3cc4cc(OCCN5CCN(C)CC5)c(OC)cc4cc23)c(Cl)cc1C [Example 203] |  |  |  | GI50 ([1]; rat2 fibroblasts transformed with v-src/hu c-src fusion gene, read-out: Src TF prolif IC50): 0.071 µM; IC50 (p60^c-src (Src)): 0.0042 µM
COc1cc(Nc2c(C#N)cnc3cc4cc(OCCN5CCOCC5)c(OC)cc4cc23)c(Cl)cc1C [Example 216, 4-(2-Chloro-5-methoxy-4-methylphenylamino)-7-methoxy-8-(2-morpholin-4-yl-ethoxy)benzo[g]quinoline-3-carbonitrile] |  |  | 220 to 222 °C | IC50 (HT-29 cells): 9.95 µM
